From the Deep4Chem optical property database come the findings set out here.

This data set can be described thus: photoluminescence quantum yield (fraction); solvent given as SMILES.
[1] abbreviates: in O=P(c1ccccc1)(c1ccccc1)c1ccccc1Oc1ccccc1P(=O)(c1ccccc1)c1ccccc1.

As to `O=C1OC(=O)C2=C1S[C@]13C2=C[C@H](c2ccccc21)c1ccccc13`, the photoluminescence quantum yield (in ClCCl) was determined as 0.95.

Take `Cc1ccc2c(c1)C(C)(C)c1cc(C)ccc1N2c1ccc2c(c1)C(C)(C)c1cc(N3c4ccc(C)cc4C(C)(C)c4cc(C)ccc43)ccc1S2(=O)=O`: the photoluminescence quantum yield under setting [1] came to 0.73.

As for `F[B-]1(F)OC(c2ccccc2)=CC(c2ccccc2)=[O+]1`, the photoluminescence quantum yield reads like this: (in CC#N) 0.8; (in ClC(Cl)(Cl)Cl) 0.15.

On to `Cc1cc(C)c(B(c2ccc(-c3nc4c5ccccc5c5ccccc5c4[nH]3)cc2)c2c(C)cc(C)cc2C)c(C)c1`, for which the photoluminescence quantum yield stood at 0.79 (in C1CCOC1); 0.71 (in CC(C)=O); 0.76 (in CS(C)=O); 0.92 (in Cc1ccccc1); 0.8 (in ClCCl).

In turn, `Cc1cc(=O)oc2c1cc(Br)c1occ(C)c12` had a photoluminescence quantum yield (in C1CCCCC1) of 0.0006; a photoluminescence quantum yield (in C1COCCO1) of 0.001; a photoluminescence quantum yield (in CC#N) of 0.002; a photoluminescence quantum yield (in CCO) of 0.004; a photoluminescence quantum yield (in OCC(F)(F)F) of 0.004.

As for `COCCOCCOCCOc1ccc(/C=C/C2=[N+]3C(=C(c4cc(OC)cc(OC)c4)c4c(C)c(I)c(/C=C/c5ccc(OCCOCCOCCOC)cc5)n4[B-]3(F)F)C(C)=C2I)cc1`, the photoluminescence quantum yield reads like this: (in C1CCOC1) 0.19; (in CS(C)=O) 0.17; (in ClCCl) 0.24.

With `CC(=O)Nc1ccc2c3cccc4cccc(c5cccc1c52)c43`, the photoluminescence quantum yield by setting is: (in C1COCCO1) 0.56; (in CC#N) 0.45; (in CCCCOCCCC) 0.46; (in CCOC(C)=O) 0.5.

For the compound `CCCC1(CCC)c2cc(-c3ccccc3)ccc2-c2ccc(-c3ccc4c(c3)C(CCC)(CCC)c3cc(-c5ccccc5)ccc3-4)cc21`, under “in C1CCCCC1”, the photoluminescence quantum yield came to 1.

`Cc1nc2cccc(-c3nc4ccccc4[nH]3)c2c(=O)[nH]1` showed a photoluminescence quantum yield (in CN(C)C=O) of 0.088.

In turn, `CC(C)(C)c1ccc(N(c2ccccc2)c2ccc3ccc4c(N(c5ccccc5)c5ccc(C(C)(C)C)cc5)ccc5ccc2c3c54)cc1` had a photoluminescence quantum yield (in ClCCl) of 0.71.

On to `CC(=O)O[B-]1(OC(C)=O)OC(/C=C/c2ccc(C)cc2)=CC(/C=C/c2ccc(C)cc2)=[O+]1`, for which the photoluminescence quantum yield reads like this: (in C1CCOC1) 0.75; (in CC#N) 0.55; (in CC(C)=O) 0.58; (in CS(C)=O) 0.51; (in Cc1ccccc1) 0.88; (in ClC(Cl)Cl) 0.63. The photoluminescence quantum yield (in ClCCl) worked out at 0.56.

In the case of `CCn1c2ccccc2c2cc(-c3cc(-c4ccc5c(c4)c4ccccc4n5CC)nc(S(C)(=O)=O)n3)ccc21`, the photoluminescence quantum yield reads like this: (in C1CCOC1) 0.61; (in CCOC(C)=O) 0.76; (in CN(C)C=O) 0.6; (in Cc1ccccc1) 0.77; (in ClCCl) 0.72.

Compound `CCN(CC)c1ccc(C2=C3C(C)=CC(/C=C/c4ccc(OCCCN=[N+]=[N-])cc4)=[N+]3[B-](F)(F)n3c(C)cc(C)c32)cc1` gave a photoluminescence quantum yield (in CO) of 0.82.

For the setting “in CCCCCCC”, `c1ccc2cc3c(cc2c1)-c1cccc2c1c-3cc1ccccc12` registered a photoluminescence quantum yield of 0.73.

As to `Cc1cc(C)c(C2=[N+]3C(=Cc4c(C)cc(C)n4[B-]3(F)F)c3ccccc32)[nH]1`, the photoluminescence quantum yield turned out to be 0.06 (in C1CCOC1); 0.02 (in CC#N); 0.85 (in CCCCCC); 0.03 (in CO); 0.81 (in Cc1ccccc1); 0.61 (in ClCCl).

Under “in CCO”, `CCOC(=O)c1cc(C(=O)O)nc2cc(OC)ccc12` registered a photoluminescence quantum yield of 0.15.

As to `CC(C)c1cc(C(C)C)c(B2c3ccccc3Oc3cc(N4c5ccccc5C5(c6ccccc6Oc6ccccc65)c5ccccc54)ccc32)c(C(C)C)c1`, the photoluminescence quantum yield (in Cc1ccccc1) worked out at 0.56.

Turning to `CN(C)c1ccc2c(c1)C(C)(C)C1=CC(=[N+](C)C)C=CC1=C2C#Cc1ccccc1`, the photoluminescence quantum yield by setting is: (in CO) 0.148; (in O) 0.047.

`N#Cc1c(-n2nnc3ccccc32)n([C@H]2C[C@H](O)[C@@H](CO)O2)c2ncnc(N)c12` had a photoluminescence quantum yield (in CO) of 0.002.

Consider `c1ccc(-c2ccc(-c3ccc(-c4ccccc4)cc3)cc2)cc1`, for which the photoluminescence quantum yield (in C1COCCO1) was determined as 0.71.

As for `FC(F)(F)c1ccc(-c2nnc(-c3cc(-c4nnc(-c5ccc(C(F)(F)F)cc5)o4)c(-n4c5ccccc5c5ccccc54)cc3-n3c4ccccc4c4ccccc43)o2)cc1`, the photoluminescence quantum yield (in Cc1ccccc1) came to 0.095 and the photoluminescence quantum yield under setting [1] is 0.698.

Where the note is “in ClCCl”, `CN(C)c1ccc(/C=C/c2cccnn2)cc1` gave a photoluminescence quantum yield of 0.02.

Consider `Cc1cc(C)c2nc3c(=O)[nH]c(=O)[nH]c3nc2c1`, for which the photoluminescence quantum yield (in CC#N) worked out at 0.02.

Take `Oc1ccc2ccccc2c1C1Nc2cccc3cccc(c23)N1`: the photoluminescence quantum yield is, setting by setting: (in CC#N) 0.03; (in CO) 0.03; (in CS(C)=O) 0.14; (in Cc1ccccc1) 0.33.

`CCCC1(CCC)c2cc(-c3ccc(-c4ccccc4)cc3)ccc2-c2ccc(-c3ccc4c(c3)C(CCC)(CCC)c3cc(-c5ccc(-c6ccccc6)cc5)ccc3-4)cc21` showed a photoluminescence quantum yield (in Cc1ccccc1) of 0.92.

Turning to `CCCCCCN1C(=O)C(c2ccc(-n3c4ccccc4c4ccccc43)cc2)=C(c2ccc(-n3c4ccccc4c4ccccc43)cc2)C1=O`, the photoluminescence quantum yield is, setting by setting: (in ClC(Cl)Cl) 0.42; (in c1ccc2c(c1)c1ccccc1n2-c1ccc(-c2ccc(-n3c4ccccc4c4ccccc43)cc2)cc1) 0.66.

Regarding `O=C1c2ccccc2-c2c(-c3cc(Cl)ccc3O)[nH]c(=O)n21`, the photoluminescence quantum yield is 0.61 (in CC#N), 0.28 (in CO) and 0.78 (in ClCCl).

For the compound `N#Cc1c(N2CCCCC2)cc(-c2cccs2)c2c1-c1cccc3cccc-2c13`, the photoluminescence quantum yield (in O) is 0.3.

`CC(C)(C)c1cc2c3cc(C(C)(C)C)c(-c4cc5cc6c7cccc8cccc(c9cc(C(C)(C)C)cc(c5cc4C(C)(C)C)c96)c87)cc3cc3c4cccc5cccc(c(c1)c23)c54` registered a photoluminescence quantum yield (in CC1CCCCC1) of 0.64.

Consider `F[B-]1(F)n2c(Oc3ccccc3)c(Cl)c3c2C(=C2C(Br)=C(Cl)C(Oc4ccccc4)=[N+]21)Oc1ccccc1-3`, for which the photoluminescence quantum yield (in ClCCl) is 0.99.

Turning to `CCCCCN(c1ccccc1)c1ccc2c(c1)C(CC)(CC)c1cc(/C=C/c3ccc(/C=C(\C#N)C(=O)O)s3)ccc1-2`, the photoluminescence quantum yield came out at 0.405 (in C1CCOC1); 0.969 (in C1COCCO1); 0.025 (in CC#N); 0.223 (in CC(C)=O); 0.801 (in CCOC(C)=O); 0.651 (in CN(C)C=O). The photoluminescence quantum yield runs as follows: (in CS(C)=O) 0.622; (in ClCCl) 0.005.

With `Cc1cc(C)c2c(c1)nc1c(=O)n(C)c(=O)nc-1n2C`, the photoluminescence quantum yield (in CC#N) was 0.18.

For the setting “in ClCCl”, `CC(C)(C)NC(=O)c1cc2ccccc2c2ccc3c4ccccc4c4ccccc4c3c12` gave a photoluminescence quantum yield of 0.06.

Take `Nc1ccc2c3c(cccc13)C(=O)c1ccccc1-2`: the photoluminescence quantum yield is, setting by setting: (in CC#N) 0.1; (in CC(C)=O) 0.11; (in CC(C)O) 0.03; (in CCCCOCCCC) 0.34; (in CCOC(C)=O) 0.21; (in CCOCC) 0.26. In addition, the photoluminescence quantum yield is, setting by setting: (in CO) 0.02; (in Cc1ccccc1) 0.3; (in Clc1ccccc1) 0.25; (in N#Cc1ccccc1) 0.14; (in O=C1CCCCC1) 0.15.

Turning to `Cc1ccc(-c2ccccc2)cc1`, the photoluminescence quantum yield (in C1CCCCC1) was determined as 0.23.

In the case of `CCC1=C(C)C2=C(c3ccc(-c4c5ccccc5c(-c5ccccc5)c5ccccc45)cc3)c3c(C)c(CC)c(C)n3[B-](F)(F)[N+]2=C1C`, the photoluminescence quantum yield reads like this: (in CC#N) 0.696; (in CCCCCC) 0.756; (in CCO) 0.841; (in CN(C)C=O) 0.232; (in Cc1ccccc1) 0.781; (in ClCCl) 0.744.

With `CC1=CC(C)=[N+]2C1=C(c1ccccc1)c1c(C)cc(/C=C/c3ccc(N(C)C)cc3)n1[B-]2(F)F`, the photoluminescence quantum yield (in CCOCC) was determined as 0.83.

`C(=C\c1ccc(/C=C/c2c3ccccc3cc3ccccc23)cc1)/c1ccncc1` yielded a photoluminescence quantum yield (in C1CCOC1) of 0.34.

As to `COc1cccc(OC)c1-c1c2ccc(=[N+]3CCCCC3)cc-2oc2cc(N3CCCCC3)ccc12`, the photoluminescence quantum yield (in ClCCl) turned out to be 0.86.

Where the note is “in ClCCl”, `c1ccc(-c2ccc(-c3cc(-c4ccccn4)nc(-c4ccccn4)c3)cc2)cc1` showed a photoluminescence quantum yield of 0.18.

With `CCCCCC(CC)C1(C(CC)CCCCC)c2ccccc2-c2ccc(C#Cc3cc(C#Cc4ccc5c(c4)C(C(CC)CCCCC)(C(CC)CCCCC)c4ccccc4-5)c4ccc5c(C#Cc6ccc7c(c6)C(C(CC)CCCCC)(C(CC)CCCCC)c6ccccc6-7)cc(C#Cc6ccc7c(c6)C(C(CC)CCCCC)(C(CC)CCCCC)c6ccccc6-7)c6ccc3c4c65)cc21` (stereo not given), the photoluminescence quantum yield (in Cc1ccccc1) turned out to be 0.67.

Where the note is “in ClC(Cl)Cl”, `CC(C)c1cccc(C(C)C)c1-n1c(=O)c2ccc3c4ccc5c(=O)n(-c6c(C(C)C)cccc6C(C)C)c(=O)c6cc7c(-c8ccccc8)nc8cc(c1=O)c2c3c8c7c4c56` showed a photoluminescence quantum yield of 0.74.

The compound `c1ccc(-c2nc(-c3ccccc3)c(-c3ccccc3)[nH]2)cc1` displayed a photoluminescence quantum yield (in CC#N) of 0.27 and a photoluminescence quantum yield (in CO) of 0.27.

Consider `CC(C)(C)c1ccc2c(c1)Sc1cc(C(C)(C)C)ccc1N2c1ccc2c(ccc3nc4ccc5cc(N6c7ccc(C(C)(C)C)cc7Sc7cc(C(C)(C)C)ccc76)ccc5c4nc32)c1`, for which the photoluminescence quantum yield is 0.11 (in C1CCCCC1) and 0.04 (in Cc1ccccc1).
